Test results published in patent US9850225B2, “Compounds useful as immunomodulators” (BRISTOL-MYERS SQUIBB COMPANY, priority 2014, dated 2017).

What follows are compounds tested against PD-1/PD-L1 interaction (PD-1-Ig / PD-L1-His) (Homo sapiens (Human), UniProt Q9NZQ7) (assay: PD-1/PD-L1 Homogenous Time-Resolved Fluorescence (HTRF) binding assay). Settings: PD-1/PD-L1 HTRF binding assay; numeric value; read-out: Range or IC50.
How it was run: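 Human PD-L1-His (10 nM final) was pre-incubated with inhibitor for 15 min, then PD-1-Ig (20 nM final) was added for a further 15 min in dPBS with 0.1% BSA and 0.05% Tween-20. Binding was detected by HTRF using Eu-cryptate anti-Ig (1 nM) and APC anti-His (20 nM).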

Sequence of PD-1/PD-L1 interaction (PD-1-Ig / PD-L1-His) (Q9NZQ7 other isoform, or with tags, fused parts or gaps): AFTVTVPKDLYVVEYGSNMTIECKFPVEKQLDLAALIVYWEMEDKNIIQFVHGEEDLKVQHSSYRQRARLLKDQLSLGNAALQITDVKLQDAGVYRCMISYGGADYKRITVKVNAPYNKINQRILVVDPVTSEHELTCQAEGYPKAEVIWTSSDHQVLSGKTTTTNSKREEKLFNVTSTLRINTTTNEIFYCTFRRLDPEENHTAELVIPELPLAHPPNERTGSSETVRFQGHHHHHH

Point of comparison: `Cc1c(COc2cc(OCc3cncc(C#N)c3)c(CN[C@H](CC(N)=O)C(=O)O)cc2Cl)cccc1-c1ccc2c(c1)OCCO2` [Example 3024, (R)-4-amino-2-((5-chloro-2-((5-cyanopyridin-3-yl)methoxy)-4-((3-(2,3-dihydrobenzo[b][1,4]dioxin-6-yl)-2-methylbenzyl)oxy)benzyl)amino)-4-oxobutanoic acid], IC50 5.54 nM. Against it:
- CC(=O)NCCNCc1cc(C)c(OCc2cccc(-c3ccc4c(c3)OCCO4)c2C#N)cc1OCc1cncc(C#N)c1 [Example 1305, N-(2-(4-(2-cyano-3-(2,3-dihydrobenzo[b][1,4]dioxin-6-yl)benzyloxy)-2-((5-cyanopyridin-3-yl)methoxy)-5-methylbenzylamino)ethyl)acetamide] — 6-fold lower, 0.92 nM
- CC(=O)NCCNCc1ccc(OCc2cccc(-c3ccccc3)c2C)cc1OCc1ccc(C(=O)O)cc1 [Example 1043, 4-((2-(((2-acetamidoethyl)amino)methyl)-5-((2-methyl-[1,1′-biphenyl]-3-yl)methoxy)phenoxy)methyl)benzoic acid] — 43-fold higher, 239 nM

Same assay, conditions: PD-1/PD-L1 HTRF binding assay; value given as range class; read-out: Range or IC50

Compared with `Cc1c(COc2cc(OCc3cccc(C#N)c3)c(CNC(C(=O)O)c3c[nH]c4ccccc34)cc2Cl)cccc1-c1ccc2c(c1)OCCO2` (centres unmarked) [Example 1211, 2-((5-chloro-2-((3-cyanobenzyl)oxy)-4-((3-(2,3-dihydrobenzo[b][1,4]dioxin-6-yl)-2-methylbenzyl)oxy)benzyl)amino)-2-(1H-indol-3-yl)acetic acid], `Cc1c(COc2cc(OCc3cccc(C#N)c3)c(CNC(Cc3c[nH]c4ccccc34)C(=O)O)cc2Cl)cccc1-c1ccc2c(c1)OCCO2` (centres unmarked) [Example 1192, 2-((5-chloro-2-((3-cyanobenzyl)oxy)-4-((3-(2,3-dihydrobenzo[b][1,4]dioxin-6-yl)-2-methylbenzyl)oxy)benzyl)amino)-3-(1H-indol-3-yl)propanoic acid] is higher in IC50: 10 to 100 nM for the first, 100 to 20000 nM for the second. The first is the more potent here.

Compared with `Cc1c(COc2cc(OCc3cccc(C#N)c3)c(CN3C[C@H](F)C[C@H]3C(=O)O)cc2Cl)cccc1-c1ccc2c(c1)OCCO2` [Example 1215, (2S,4R)-1-(5-chloro-2-((3-cyanobenzyl)oxy)-4-((3-(2,3-dihydrobenzo[b][1,4]dioxin-6-yl)-2-methylbenzyl)oxy)benzyl)-4-fluoropyrrolidine-2-carboxylic acid], `Cc1c(COc2cc(OCc3cccc(C#N)c3)c(CN3CCC[C@@H](C(=O)O)[C@H]3C(=O)O)cc2Cl)cccc1-c1ccc2c(c1)OCCO2` [Example 1190, (2S,3R)-1-(5-chloro-2-((3-cyanobenzyl)oxy)-4-((3-(2,3-dihydrobenzo[b][1,4]dioxin-6-yl)-2-methylbenzyl)oxy)benzyl)piperidine-2,3-dicarboxylic acid] is lower in IC50: 10 to 100 nM for the first, 0.6 to 10 nM for the second.

`Cc1c(COc2cc(OCc3cccc(C#N)c3)c(CNC(CN(C)C)C(=O)O)cc2Cl)cccc1-c1ccc2c(c1)OCCO2` (centres unmarked) [Example 1172, 2-((5-chloro-2-((3-cyanobenzyl)oxy)-4-((3-(2,3-dihydrobenzo[b][1,4]dioxin-6-yl)-2-methylbenzyl)oxy)benzyl)amino)-3-(dimethylamino)propanoic acid] and `N#Cc1cccc(COc2cc(OCc3cccc(-c4ccc5c(c4)OCCO5)c3C#N)c(Cl)cc2CN[C@H](CO)C(=O)O)c1` [Example 1242, (R)-2-((5-chloro-4-((2-cyano-3-(2,3-dihydrobenzo[b][1,4]dioxin-6-yl)benzyl)oxy)-2-((3-cyanobenzyl)oxy)benzyl)amino)-3-hydroxypropanoic acid] fall in the same range of IC50: 0.6 to 10 nM for the first, 0.6 to 10 nM for the second.

`CC(=O)NCCNCc1ccc(OCc2cccc(-c3ccccc3)c2C)cc1OCc1cccc(F)c1` [Example 1050, N-(2-((2-((3-fluorobenzyl)oxy)-4-((2-methyl-[1,1′-biphenyl]-3-yl)methoxy)benzyl)amino)ethyl)acetamide] and `CC(=O)NCCNCc1ccc(OCc2cccc(-c3ccccc3)c2C)cc1OCc1cccc(CO)c1` [Example 1037, N-(2-((2-((3-(hydroxymethyl)benzyl)oxy)-4-((2-methyl-[1,1′-biphenyl]-3-yl)methoxy)benzyl)amino)ethyl)acetamide] fall in the same range of IC50: 100 to 20000 nM for the first, 100 to 20000 nM for the second.

`Cc1cc(CN[C@](C)(CO)C(=O)O)c(OCc2cncc(C#N)c2)cc1OCc1cccc(-c2ccc3c(c2)OCCO3)c1C` [Example 1287, (R)-2-(2-((5-cyanopyridin-3-yl)methoxy)-4-(3-(2,3-dihydrobenzo[b][1,4]dioxin-6-yl)-2-methylbenzyloxy)-5-methylbenzylamino)-3-hydroxy-2-methylpropanoic acid] and `Cc1cc(OCc2cccc(-c3ccc4c(c3)OCCO4)c2C)cc(OCc2cncc(C#N)c2)c1CN[C@H](CO)C(=O)O` [Example 1007, (R)-2-(2-((5-cyanopyridin-3-yl)methoxy)-4-(3-(2,3-dihydrobenzo[b][1,4]dioxin-6-yl)-2-methylbenzyloxy)-6-methylbenzylamino)-3-hydroxypropanoic acid] fall in the same range of IC50: 0.6 to 10 nM for the first, 0.6 to 10 nM for the second.

`CC(=O)NCCNCc1cc(Br)c(OCc2cccc(-c3ccc4c(c3)OCCO4)c2C)cc1OCc1cccc(C#N)c1` [Example 1299, N-(2-((5-bromo-2-((3-cyanobenzyl)oxy)-4-((3-(2,3-dihydrobenzo[b][1,4]dioxin-6-yl)-2-methylbenzyl)oxy)benzyl)amino)ethyl)acetamide] and `CC(=O)NCCNCc1cc(C)c(OCc2cccc(-c3ccc4c(c3)OCCO4)c2C#N)cc1OCc1cncc(C#N)c1` [Example 1305, N-(2-(4-(2-cyano-3-(2,3-dihydrobenzo[b][1,4]dioxin-6-yl)benzyloxy)-2-((5-cyanopyridin-3-yl)methoxy)-5-methylbenzylamino)ethyl)acetamide] fall in the same range of IC50: 0.6 to 10 nM for the first, 0.6 to 10 nM for the second.

`CC(=O)NCCNCc1ccc(OCc2cccc(-c3ccccc3)c2C)cc1OCc1cc(C)cc(F)c1` [Example 1113, N-(2-((2-((3-fluoro-5-methylbenzyl)oxy)-4-((2-methyl-[1,1′-biphenyl]-3-yl)methoxy)benzyl)amino)ethyl)acetamide] and `CC(=O)NCCNCc1ccc(OCc2cccc(-c3ccccc3)c2C)cc1OCc1ccc2[nH]ncc2c1` [Example 1098, N-(2-((2-((1H-indazol-5-yl)methoxy)-4-((2-methyl-[1,1′-biphenyl]-3-yl)methoxy)benzyl)amino)ethyl)acetamide] fall in the same range of IC50: 100 to 20000 nM for the first, 100 to 20000 nM for the second.

`CC(=O)NCCNCc1ccc(OCc2cccc(-c3ccccc3)c2C)cc1OCC(F)(F)F` [Example 1026, N-(2-((4-((2-methyl-[1,1′-biphenyl]-3-yl)methoxy)-2-(2,2,2-trifluoroethoxy)benzyl)amino)ethyl)acetamide] and `CC(=O)NCCNCc1ccc(OCc2cccc(-c3ccccc3)c2C)cc1OCCCO` [Example 1035, N-(2-((2-(3-hydroxypropoxy)-4-((2-methyl-[1,1′-biphenyl]-3-yl)methoxy)benzyl)amino)ethyl)acetamide] fall in the same range of IC50: 100 to 20000 nM for the first, 100 to 20000 nM for the second.

`COC(=O)c1ccc(COc2cc(OCc3cccc(-c4ccccc4)c3C)ccc2CNCCNC(C)=O)cc1` [Example 1067, methyl 4-((2-(((2-acetamidoethyl)amino)methyl)-5-((2-methyl-[1,1′-biphenyl]-3-yl)methoxy)phenoxy)methyl)benzoate] and `COCCCOc1cc(OCc2cccc(-c3ccccc3)c2C)ccc1CNCCNC(C)=O` [Example 1042, N-(2-((2-(3-methoxypropoxy)-4-((2-methyl-[1,1′-biphenyl]-3-yl)methoxy)benzyl)amino)ethyl)acetamide] fall in the same range of IC50: 100 to 20000 nM for the first, 100 to 20000 nM for the second.

`CC(=O)NCCNCc1ccc(OCc2cccc(-c3ccccc3)c2C)cc1OCc1ccccc1C(F)(F)F` [Example 1066, N-(2-((4-((2-methyl-[1,1′-biphenyl]-3-yl)methoxy)-2-((2-(trifluoromethyl)benzyl)oxy)benzyl)amino)ethyl)acetamide] and `CC(=O)NCCNCc1ccc(OCc2cccc(-c3ccccc3)c2C)cc1OCCc1ccccc1` [Example 1033, N-(2-((4-((2-methyl-[1,1′-biphenyl]-3-yl)methoxy)-2-phenethoxybenzyl)amino)ethyl)acetamide] fall in the same range of IC50: 100 to 20000 nM for the first, 100 to 20000 nM for the second.

First: Cc1c(COc2cc(OCc3cncc(C#N)c3)c(CN[C@@H](CCN)C(=O)O)cc2Cl)cccc1-c1ccc2c(c1)OCCO2 [Example 2005, (S)-4-amino-2-((5-chloro-2-((5-cyanopyridin-3-yl)methoxy)-4-((3-(2,3-dihydrobenzo[b][1,4]dioxin-6-yl)-2-methylbenzyl)oxy)benzyl)amino)butanoic acid]
Second: Cc1c(COc2ccc(CN[C@H](CO)C(=O)O)c(OCc3cccc(C#N)c3)c2Cl)cccc1-c1ccc2c(c1)OCCO2 [Example 1235, (R)-2-((3-chloro-2-((3-cyanobenzyl)oxy)-4-((3-(2,3-dihydrobenzo[b][1,4]dioxin-6-yl)-2-methylbenzyl)oxy)benzyl)amino)-3-hydroxypropanoic acid]
The IC50 of the first is lower: 10 to 100 nM for the first, 100 to 20000 nM for the second.

First: CC(=O)NCCNCc1ccc(OCc2cccc(-c3ccccc3)c2C)cc1OCc1ccc2nc(C(F)(F)F)cc(Cl)c2c1 [Example 1083, N-(2-((2-((4-chloro-2-(trifluoromethyl)quinolin-6-yl)methoxy)-4-((2-methyl-[1,1′-biphenyl]-3-yl)methoxy)benzyl)amino)ethyl)acetamide]
Second: Cc1c(COc2ccc(CN[C@H](CO)C(=O)O)c(OCc3cncc(C#N)c3)c2)cccc1-c1ccccc1 [Example 1327, (R)-2-((2-((5-cyanopyridin-3-yl)methoxy)-4-((2-methyl-[1,1′-biphenyl]-3-yl)methoxy)benzyl)amino)-3-hydroxypropanoic acid]
The IC50 of the first is higher: 100 to 20000 nM for the first, 0.6 to 10 nM for the second.

Compared with `Cc1c(COc2ccc(CN[C@H](CO)C(=O)O)c(OCc3cccc(C(N)=O)c3)c2)cccc1-c1ccc2c(c1)OCCO2` [Example 1325, (R)-2-((2-((3-carbamoylbenzyl)oxy)-4-((3-(2,3-dihydrobenzo[b][1,4]dioxin-6-yl)-2-methylbenzyl)oxy)benzyl)amino)-3-hydroxypropanoic acid], `Cc1c(COc2cc(OCc3cccc(S(C)(=O)=O)c3)c(CN[C@@](C)(CO)C(=O)O)cc2Cl)cccc1-c1ccc2c(c1)OCCO2` [Example 3021, (S)-2-((5-chloro-4-((3-(2,3-dihydrobenzo[b][1,4]dioxin-6-yl)-2-methylbenzyl)oxy)-2-((3-(methylsulfonyl)benzyl)oxy)benzyl)amino)-3-hydroxy-2-methylpropanoic acid] is lower in IC50: 10 to 100 nM for the first, 0.6 to 10 nM for the second.
